According to patent publication US9623262B2, “Methods and systems for determining the distribution of radiation dose and response” (priority 2013, dated 2017):

Columns and labels:
V79 cells [1] = experiment: Clonogenic survival assay after single-agent treatment
Description: The surviving fraction SF of cells exposed to the agent was assessed with a clonogenic survival assay and plotted as a function of several different variables including extracellular concentration, <I>net, absorbed dose (Gy), and mean cellular activity (mBq/cell). […] Analogous to the cellular activity and absorbed dose required to achieve 37% survival, a37 and D37, the net mean lethal fluorescence intensity of the drug required to achieve 37% survival, <I>net,37, can be defined similarly and obtained from plots of SF versus <I>net.
A is the intracellular activity of ^210Po-citrate, absorbed dose to the cell nucleus, or drug concentration. Least squares fits of the survival data to this function were performed. The variable b is a fitted parameter.
Cells grown in 225-cm^2 flasks were trypsinized (0.25% trypsin, Gibco, catalog no. 25200-056), and MEMB was added to obtain 2×10^6 cells/mL. Aliquots of 1 mL were placed in Falcon 17×100 mm polypropylene tubes (BD, catalog no. 352018) and placed on a rocker-roller (Thermo Fisher, Fair Lawn, N.J.) for 3 hours at 37° C. with 5% CO2 and 95% air. After this conditioning period, cells were treated with drug or radiochemical. Cell cultures were exposed to radiochemical and drugs for 0.5 and 2.5 h, respectively.
One milliliter of MEMB containing ^210Po-citrate was added to the 1 mL of conditioned V79 cultures (2×10^6 cells/mL), to arrive at a concentration of 0-250 kBq/mL (pH 6.9-7.0). After incubating for 30 min, the cells were washed 2× with MEMB, resuspended in 2 mL of MEMB, and incubated on a rocker-roller for 2.5 h to simulate concomitant drug exposure. The cells were resuspended in a 5 mL of MEMB, passed 5× through a needle, and counted with a Beckman Coulter Model Z2 (Brea, Calif.). Aliquots (500 μL) of the cell suspension were transferred to vials, mixed with 5 mL Ecolume (MP Biomedical, Solon, Ohio, catalog no. 882470), and counted with a Beckman Coulter LS6500, and the mean activity per cell was determined (efficiency, 50% as per prior studies). Aliquots of about 5×10^5 cells were counted in triplicate for ^210Po activity and the cpm ranged from 10^3-10^5. The triplicate measurements kept statistical variations to a minimum. Each sample was serially diluted and plated in Falcon 60×15 mm tissue culture dishes for colony formation. Cultures were incubated for 7 days, and the colonies were fixed in 95% ethanol, stained with 0.01% Amido Black, washed in tap-water, air-dried, and counted.
After conditioning, the cell cultures were treated with daunomycin (Sigma, catalog no. D8809) or doxorubicin (Sigma, catalog no. 44583) to a final concentration of 0-10 μmol/L in MEMB. The tubes were returned to the rocker-roller for 2.5 h. The cells were then processed for colony formation as described above.

V79 cells [2] = experiment: Clonogenic survival after combined treatment with 210Po-citrate and drug (cocktails); assay type: cell-based, Chinese hamster; details: for dose dependence of the enhancement of α-particle radiotoxicity: 0.63 μM daunomycin or 2.50 μM doxorubicin with graded 210Po-citrate; for effect of drug on radiotoxicity of 210Po-citrate: concomitant treatment, survival corrected for drug toxicity
Description: To evaluate cytotoxicity of combined treatment of V79 cells with ^210Po-citrate and daunomycin, or ^210Po-citrate and doxorubicin, the surviving fraction of clonogens was plotted as a function of mean cellular uptake of ^210Po (FIG. 9) and as a function of mean absorbed dose to the cell nucleus. When cells were only treated with ^210Po-citrate, the survival curve can be described by a 1-component exponential function. When cells were concomitantly treated with a single drug concentration and varying amounts of ^210Po-citrate, the dose-response curves followed a 2-component exponential function. The data corresponding to the combined treatments were then corrected for drug toxicity, by dividing the surviving fraction for each datum point by the surviving fraction for drug alone (SF=0.10), and replotted in FIG. 9. Both of the corrected cell survival curves emerged below those obtained for ^210Po-citrate alone.

Compound | relative cytotoxicity based on extracellular drug concentration (V79 cells [1]; V79 cell cultures) | lethality of daunomycin relative to doxorubicin (V79 cells [1]; low extracellular concentrations, V79 cells) [×] | dose dependence of the enhancement of α-particle radiotoxicity (V79 cells [2]) | effect of drug on radiotoxicity of 210Po-citrate (V79 cells [2]) | cellular uptake of 210Po at the mean lethal dose (V79 cells [1]; 37% survival) [mBq/cell] | atoms of 210Po per cell at the mean lethal dose (V79 cells [1]; corresponds to 0.21 mBq/cell)
COc1cccc2c1C(=O)c1c(O)c3c(c(O)c1C2=O)C[C@@](O)(C(C)=O)C[C@@H]3O[C@H]1C[C@H](N)[C@H](O)[C@H](C)O1 [daunomycin] | more cytotoxic than doxorubicin | ~5 | independent of radiation absorbed dose beyond about 0.5 Gy | enhance the radiotoxicity of α-particles | – | –
COc1cccc2c1C(=O)c1c(O)c3c(c(O)c1C2=O)C[C@@](O)(C(=O)CO)C[C@@H]3O[C@H]1C[C@H](N)[C@H](O)[C@H](C)O1 [doxorubicin] | – | – | dose-dependent increase | enhance the radiotoxicity of α-particles | – | –
^210Po-citrate | – | – | – | – | 0.21 | about 3600 atoms
